# From US9757379B2, “Inhibition of HIF-2α heterodimerization with HIF1β (ARNT)” (The Board of Regents of the University of Texas System, priority 2012, dated 2017)
# Entries after “also recorded” stand apart in the source; their conditions may differ. Like-named read-outs stand apart in the source and are kept apart here.
# Tests used:
# HIF-2α PAS-B = HIF-2α PAS-B (Homo sapiens, UniProt Q99814); experiment: Isothermal titration calorimetry (ITC) on HIF-2α PAS-B;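 further: Wild-type protein (200 µM) titrated into 5-10 µM compound, heats of dilution from a compound-free titration subtracted, isotherms fit to a single-site model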
# Chain of HIF-2α PAS-B (Q99814 240-350): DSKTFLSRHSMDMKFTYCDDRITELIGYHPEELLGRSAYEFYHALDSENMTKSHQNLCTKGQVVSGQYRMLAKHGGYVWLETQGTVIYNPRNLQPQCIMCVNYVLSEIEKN
# From the text: ITC, as described more fully below, introduces a wild-type HIF-2α PAS-B solution into a to-be-assayed compound solution using, for example, a VP-ITC instrument (MicroCal). After subtracting heats of dilution evolved from the titrating protein, e.g., wild-type HIF-2α PAS-B, into a compound-free buffer, data were fit to a single-site binding model with, for example, MicroCal Origin® software to determine complex affinities.
# The following is a general procedure describing the ITC assay Thermodynamic parameters of small molecule binding are determined using a MicroCal VP-ITC calorimeter. Solutions of HIF-2α PAS-B are extensively dialyzed against buffer (50 mM Tris (pH 7.5), 20 mM NaCl and 5 mM beta-mercaptoethanol), which is subsequently used to prepare a matched compound solution by dilution from a 50 mM compound stock in 100% DMSO. […] Each isotherm is recorded by injecting 200 μM protein (syringe) into 5-10 μM solutions of compound (cell), accounting for dilution heats by subtracting data from a control titration of 200 μM protein into a matched buffer-DMSO solution. Thermograms are fit to a single site binding model to extract equilibrium binding parameters.
# [1] = molecular target: HIF-2α PAS-B*/ARNT PAS-B* heterodimer (Homo sapiens, UniProt Q99814, R247E); experiment: AlphaScreen, HIF-2α PAS-B*/ARNT PAS-B* heterodimerization; conditions: for Effect on HIF-2α/ARNT PAS-B* heterodimerization in AlphaScreen: triplicate;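 on all read-outs here: GST-tagged HIF-2α PAS-B* and FLAG-tagged ARNT PAS-B* with glutathione donor and anti-FLAG acceptor beads, luminescence after 680 nm excitation, loss of signal indicating disrupted heterodimer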
# Chain of HIF-2α PAS-B*/ARNT PAS-B* heterodimer (Q99814 240-350 R247E, one chain of several): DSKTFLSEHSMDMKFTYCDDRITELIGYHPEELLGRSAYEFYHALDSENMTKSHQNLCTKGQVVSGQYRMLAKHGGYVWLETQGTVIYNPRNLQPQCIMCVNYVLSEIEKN
# From the text: (FIG. 8a) As shown in the cartoon schematic, interactions between GST-tagged HIF-2α (green) and FLAG-tagged ARNT (blue) PAS-B* domains recruit both donor beads (D), coated with glutathione, and acceptor beads (A), coated with anti-FLAG antibodies, to one another. Upon illumination with red (680 nm) light, donor beads will generate short-lived singlet oxygen (^1O2). Nearby (<200 nm) acceptor beads can react with ^1O2 to emit light at shorter wavelengths (top). Compounds that disrupt the complex correspondingly eliminate this signal (bottom). Compounds that non-specifically interfere with the AlphaScreen assay can be identified with a counterscreen in which the ARNT PAS-B* domain was simultaneously tagged with both the GST and FLAG tags. (FIG. 8b) The AlphaScreen signal (relative units; RU) reflecting protein-protein interactions between 25 (open triangles), 50 (open circles) or 100 (closed circles) nM HIF-2α PAS-B* increases with increasing concentrations of ARNT PAS-B*. At the highest ARNT PAS-B* concentrations, a decrease in signal reflects the hook effect. At these concentrations, protein binding to the acceptor beads has become saturated and free ARNT PAS-B* competes with the coated acceptor beads for the donor beads bound to HIF-2α PAS-B*. […] Assays were performed in triplicate and the error bars represent±SD.
# Inhibition of heterodimerization of HIF-2α to HIF1β (ARNT) may be determined in an Amplified Luminescent Proximity Homogeneous Assay (AlphaScreen).
# The AlphaScreen assay can be done according to the following procedures: • 1. Prepare cold binding buffer solution: 20 mM Tris-Cl (pH=7.5), 100 mM NaCl, 1 mM DTT, 0.02% Tween-20 (final concentration) and place on ice to keep temperature approximately 4° C. • 2. Prepare Protein Mix: To a 50 mL conical tube add 23 mL of cold buffer and 0.04 mL of both GST-HIF2α PASB* (100 μM) and ARNT-PASB*-Flag (100 μM). • 3. Distribute to 96 well plate: Add 60 μL of protein mix to each wells. • 4. Adding Compound: Dissolve compounds in DMSO to obtain a final concentration of 10 mM. Then create the appropriate dilutions for your particular compound in glass vials. Once all the dilutions are ready place 1 μL of compound in each well. • 5. Prepare Bead mix: In the dark room using green light only create a tube with 3.84 mL of cold buffer and 3 μL of GST Donor beads and Flag acceptor beads. • 6. Distribute Bead mix: Invert the tube a couple times before distributing 40 μL of mix to each well. • 7. Incubation: After adding beads wrap the plate in tin foil twice and remove the covered plate from dark room. Incubate the plate at room temperature while rocking gently for 4 hours. • 8. Read: After 4 hours place the uncovered plate in the plate reader. Make sure the room is relatively tree of white light when placing the plate in the machine. It is ok to have the green light on if needed. • 9. […] Flag acceptor beads should be aliquoted into small opaque tubes (20-50 μl per tube) upon arrival from the manufacturer. Place both sets of beads in 4° C. storage when not in use. • 11. Avoid expose beads to white light. • 12. Pipette beads up and down several times before adding to a tube of cold buffer solution. • 13. Amount of Beads used for Bead mix may vary from batch to batch.
# HIF-1α PAS-B = HIF-1α PAS-B (Homo sapiens, UniProt Q16665); experiment: Isothermal titration calorimetry (ITC) on HIF-1α PAS-B; format: binding; conditions: same conditions as for HIF-2α PAS-B
# Chain of HIF-1α PAS-B (Q16665 238-349): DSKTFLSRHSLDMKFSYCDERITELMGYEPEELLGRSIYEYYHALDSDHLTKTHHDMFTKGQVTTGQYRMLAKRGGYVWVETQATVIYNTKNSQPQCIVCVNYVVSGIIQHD
# From the text: (§1) Ensuing allosteric conformational changes propagate to the surface of the domain, weakening interactions with the ARNT PAS-B domain and disrupting heterodimerization of the full length HIF-2 transcription factor.
# HIF-1α = molecular target: T1, HIF-1α (Homo sapiens, UniProt Q16665); experiment: ChIP, HIF-1α DNA binding in cultured cells; format: cell-based; conditions: 10 μM, hypoxic conditions
# T1 construct: endogenous in cells
# T1 sequence (Q16665 whole entry): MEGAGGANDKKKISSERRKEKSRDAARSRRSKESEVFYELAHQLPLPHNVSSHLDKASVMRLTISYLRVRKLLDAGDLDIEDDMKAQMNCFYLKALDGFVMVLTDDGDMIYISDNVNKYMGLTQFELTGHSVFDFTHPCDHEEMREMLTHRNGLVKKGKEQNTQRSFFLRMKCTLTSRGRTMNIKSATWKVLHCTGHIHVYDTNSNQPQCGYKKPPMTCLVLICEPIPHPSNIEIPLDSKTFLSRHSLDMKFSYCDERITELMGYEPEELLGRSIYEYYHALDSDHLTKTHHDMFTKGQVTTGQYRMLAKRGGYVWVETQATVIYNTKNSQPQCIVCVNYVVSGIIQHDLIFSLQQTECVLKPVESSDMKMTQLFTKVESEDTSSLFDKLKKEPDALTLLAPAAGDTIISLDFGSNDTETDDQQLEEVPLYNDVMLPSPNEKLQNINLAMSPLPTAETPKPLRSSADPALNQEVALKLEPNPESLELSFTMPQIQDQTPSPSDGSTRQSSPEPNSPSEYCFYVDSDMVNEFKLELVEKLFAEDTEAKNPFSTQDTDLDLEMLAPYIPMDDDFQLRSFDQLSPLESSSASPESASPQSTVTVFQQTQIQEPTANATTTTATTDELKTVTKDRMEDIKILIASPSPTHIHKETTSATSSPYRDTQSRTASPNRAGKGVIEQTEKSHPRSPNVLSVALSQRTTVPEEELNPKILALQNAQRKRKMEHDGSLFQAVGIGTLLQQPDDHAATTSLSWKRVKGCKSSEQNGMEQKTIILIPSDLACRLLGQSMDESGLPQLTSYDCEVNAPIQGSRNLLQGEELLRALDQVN
# T1 sequence (P27540 2-789 partner limits assumed): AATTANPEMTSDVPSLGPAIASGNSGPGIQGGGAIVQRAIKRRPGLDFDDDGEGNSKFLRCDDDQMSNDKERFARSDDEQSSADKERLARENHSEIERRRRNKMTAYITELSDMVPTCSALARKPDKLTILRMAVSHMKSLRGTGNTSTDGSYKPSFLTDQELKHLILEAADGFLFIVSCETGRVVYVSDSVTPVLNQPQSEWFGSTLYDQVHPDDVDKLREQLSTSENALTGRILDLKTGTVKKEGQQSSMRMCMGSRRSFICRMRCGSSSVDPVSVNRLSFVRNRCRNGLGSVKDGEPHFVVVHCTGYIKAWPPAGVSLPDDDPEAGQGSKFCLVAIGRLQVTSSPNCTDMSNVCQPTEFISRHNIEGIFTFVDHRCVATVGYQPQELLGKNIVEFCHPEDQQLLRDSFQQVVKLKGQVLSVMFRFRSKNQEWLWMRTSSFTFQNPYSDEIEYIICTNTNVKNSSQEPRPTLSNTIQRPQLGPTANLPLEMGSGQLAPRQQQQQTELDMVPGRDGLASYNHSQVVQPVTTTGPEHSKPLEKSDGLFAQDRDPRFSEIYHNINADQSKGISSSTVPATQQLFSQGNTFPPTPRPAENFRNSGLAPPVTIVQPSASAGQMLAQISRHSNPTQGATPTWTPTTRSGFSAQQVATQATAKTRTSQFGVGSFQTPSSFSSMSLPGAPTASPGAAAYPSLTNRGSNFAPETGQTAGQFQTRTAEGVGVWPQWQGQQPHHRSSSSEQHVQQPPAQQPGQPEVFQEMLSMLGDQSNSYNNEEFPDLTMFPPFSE
# Procedure: (§2) Chromatin immunoprecipation (ChIP) using antibodies raised against HIF-1α or HIF-2α was used to measure HIF DNA binding in cultured cells.
# (§3) Proc Natl Acad Sci USA 106, 4260-4265 (2009) using the ChIP-IT Express Enzymatic Kit (Active Motif) according to the manufacturer's protocol. ChIP assays were carried out using normal mouse IgG (Santa Cruz Biotechnology), anti-HIF-2α mouse monoclonal antibody (Novus Biologicals), or anti-HIF-1α mouse monoclonal antibody (BD Biosciences). The precipitated genomic DNA was analyzed by qPCR using the primers for a human EPO enhancer amplicon ([…]; […]). The captured genomic DNA was measured by normalizing with that of input material and compared between sample.
# HIF-2α [2] = experiment: ChIP, HIF-2α DNA binding in cultured cells; format: cell-based, human; conditions: 10 μM, hypoxic conditions
# Procedure: as §2, §3
# VEGF [3] = experiment: HIF-2 target gene (VEGF) expression in 786-0 cells, RT-PCR; format: cell-based, human; conditions: 18 hr
# From the text: (§4) 786-0 cells, derived from a human renal cell carcinoma, lack functional pVHL and constitutively accumulate HIF-2α under normoxic conditions. These cells also lack detectable HIF-1α expression so that HIF-dependent regulation of target genes is attributable to HIF-2α isoform.
# EPO = EPO mRNA expression in Hep3B cells (HIF-2α marker); format: cell-based; conditions: 1 or 10 μM, hypoxic (1% O2) 6 or 12 hr
# HIF-2α [4] = experiment: HIF-2α expression in 786-0 cells (RT-PCR, immunoblot); format: cell-based, human; conditions: normoxic 786-0 cells
# From the text: as §4
# HIF-1 heterodimerization = molecular target: T2, HIF-1 heterodimerization (Homo sapiens, UniProt Q16665); experiment: Co-IP of HIF-1α with ARNT, nuclear extracts of hypoxic Hep3B cells; format: biochemical; conditions: increasing amounts
# T2 construct: Nuclear extracts prepared from hypoxic Hep3B cells expressing ARNT, HIF-1α, and HIF-2α (input); endogenous in cells; host or cells: Hep3B (hypoxic), nuclear extracts
# T2 sequence (Q16665 whole entry): as the sequence (Q16665 whole entry) above
# T2 sequence (P27540 2-789 partner limits assumed): as the sequence (P27540 2-789 partner limits assumed) above
# From the text: as §1
# 786-0 cells = experiment: Cell viability, ATP levels by Cell Titer Glo; format: cell-based, human; conditions: 24 hr, as much as 30 μM
# Procedure: Assays were performed in triplicates and the error bars represent±SD.
# as §4
# [5] = molecular target: T3, full length HIF-2α and ARNT (Homo sapiens, UniProt Q99814); experiment: Co-IP of HIF-2α with ARNT, nuclear extracts of hypoxic Hep3B cells; format: biochemical; conditions: increasing concentrations
# T3 construct: heterodimerization between full length HIF-2α and ARNT polypeptides; endogenous in cells; host or cells: Hep3B (hypoxic), nuclear extracts
# T3 sequence (Q99814 whole entry): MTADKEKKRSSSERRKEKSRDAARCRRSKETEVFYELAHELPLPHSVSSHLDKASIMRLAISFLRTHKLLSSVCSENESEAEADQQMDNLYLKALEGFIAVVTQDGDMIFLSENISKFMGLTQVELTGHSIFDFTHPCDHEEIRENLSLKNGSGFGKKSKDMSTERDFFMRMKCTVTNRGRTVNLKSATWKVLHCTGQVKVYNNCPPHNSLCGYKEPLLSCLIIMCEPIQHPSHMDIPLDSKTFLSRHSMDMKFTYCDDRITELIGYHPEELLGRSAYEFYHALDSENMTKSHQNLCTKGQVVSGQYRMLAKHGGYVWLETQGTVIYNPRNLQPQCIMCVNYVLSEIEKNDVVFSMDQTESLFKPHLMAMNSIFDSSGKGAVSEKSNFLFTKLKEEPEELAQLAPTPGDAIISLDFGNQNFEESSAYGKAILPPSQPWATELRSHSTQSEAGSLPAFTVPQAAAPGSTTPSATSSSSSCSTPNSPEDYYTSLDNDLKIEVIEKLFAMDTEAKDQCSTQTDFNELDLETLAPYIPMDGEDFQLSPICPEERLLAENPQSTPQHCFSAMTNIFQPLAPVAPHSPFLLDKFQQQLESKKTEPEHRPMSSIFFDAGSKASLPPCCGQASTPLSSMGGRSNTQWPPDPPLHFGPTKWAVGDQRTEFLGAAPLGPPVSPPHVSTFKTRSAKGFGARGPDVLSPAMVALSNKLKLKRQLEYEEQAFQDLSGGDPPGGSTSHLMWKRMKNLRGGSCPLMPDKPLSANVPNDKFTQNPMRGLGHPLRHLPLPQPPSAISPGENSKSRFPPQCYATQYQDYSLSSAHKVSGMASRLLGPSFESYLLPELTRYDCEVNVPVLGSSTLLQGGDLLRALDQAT
# Procedure: An antibody recognizing the N-terminus of ARNT, was used to immunoprecipitate (IP) the endogenous ARNT protein from the nuclear extracts (FIG. 17 b; top panel).
# Co-IP: Nuclear protein extraction and co-IP experiments were performed as reported in Semenza, G. L. Hypoxia-inducible factors: mediators of cancer progression and targets for cancer therapy. […] The following antibodies were used for immunoblot analysis: anti-HIF-1α mouse monoclonal antibody (BD Biosciences); anti-EPAS/HIF-2α mouse monoclonal antibody (Novus Biological); anti-ARNT/HIF-1β mouse monoclonal antibody (Novus Biological).
# VEGF [6] = experiment: VEGF protein secretion by ELISA, 786-O cells; format: cell-based, human; conditions: about 18 hours, 0.00655-20 μM
# Procedure: VEGF protein secretion was measured by ELISA following incubation of cultured 786-O cells for about eighteen (18) hours with Compund (1) (FIG. 19a) or with Compound (47) (FIG. 19b).
# PGK1 = PGK1 mRNA expression in Hep3B cells (HIF-1α marker); format: cell-based; conditions: 1 or 10 μM, hypoxic (1% O2) 6 or 12 hr
# GST-ARNT-PAS-B*-FLAG = GST-ARNT-PAS-B*-FLAG (Homo sapiens, UniProt P27540, E362R); experiment: AlphaScreen control reaction with doubly tagged protein; format: biochemical; conditions: single doubly tagged protein
# Chain of GST-ARNT-PAS-B*-FLAG (P27540 355-470 E362R): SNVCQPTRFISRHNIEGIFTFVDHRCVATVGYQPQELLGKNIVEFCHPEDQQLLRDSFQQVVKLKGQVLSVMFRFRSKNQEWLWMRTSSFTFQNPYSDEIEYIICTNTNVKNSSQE
# From the text: Upon illumination with red (680 nm) light, donor beads will generate short-lived singlet oxygen (^1O2). Nearby (<200 nm) acceptor beads can react with ^1O2 to emit light at shorter wavelengths (top). Compounds that disrupt the complex correspondingly eliminate this signal (bottom). Compounds that non-specifically interfere with the AlphaScreen assay can be identified with a counterscreen in which the ARNT PAS-B* domain was simultaneously tagged with both the GST and FLAG tags. […] At these concentrations, protein binding to the acceptor beads has become saturated and free ARNT PAS-B* competes with the coated acceptor beads for the donor beads bound to HIF-2α PAS-B*. […] Assays were performed in triplicate and the error bars represent±SD.
# HIF-2α or HIF-1α mRNA = experiment: HIF-1α and HIF-2α mRNA levels in Hep3B cells, RT-PCR; format: cell-based
SMILES,Kd (HIF-2α PAS-B) [nM],IC50 [1] [nM],Kd (HIF-2α PAS-B; read-out: ITC Kd) [nM],also measured
"Fc1ccc(Cl)c(F)c1[C@@H]1C[C@H](c2cccc(Br)c2)Nc2nnnn21 (racemic) [Compound 61, (+/−)-(cis)-5-(3-bromophenyl)-7-(3-chloro-2,6-difluorophenyl)-4,5,6,7-tetrahydrotetrazolo[1,5-a]pyrimidine]",32,200,,
"O=[N+]([O-])c1c(Nc2cc(F)cc(Cl)c2)ccc2nonc12 [Compound 1, N-(3-chloro-5-fluorophenyl)-4-nitrobenzo[c][1,2,5]oxadiazol-5-amine]",,100,,"ITC protein-ligand interaction, HIF-1α PAS-B (HIF-1α PAS-B): effectively does not bind; also recorded: does not show detectable protein-ligand interaction; Kd (HIF-1α PAS-B): > 5 µM; HIF-1α DNA-binding activity (ChIP) (HIF-1α): unaffected; HIF-2α DNA-binding activity (ChIP) (HIF-2α [2]): substantially decreased; also recorded: selectively disrupts; Expression of HIF-2 target gene (VEGF) (VEGF [3]): reduced in a dose-dependent manner; also recorded: antagonized; Hypoxic induction of EPO mRNA (EPO): antagonized; Effect on HIF-2α expression (mRNA, protein) (HIF-2α [4]): does not alter; also recorded: no effect; Effect on HIF-1 heterodimerization by Co-IP (HIF-1 heterodimerization): little effect; Toxicity to cultured cells (ATP levels as cell viability) (786-0 cells): No overt toxicity; also recorded: not overtly toxic; Heterodimerization of full length HIF-2 transcription factor (co-IP) [5]: disrupts heterodimerization; VEGF protein secretion (VEGF [6]): reduce VEGF protein secretion in a dose-dependent manner; Expression of PGK1 (PGK1): no effect; Effect on AlphaScreen signal of control reaction (GST-ARNT-PAS-B*-FLAG): No effect; HIF-1α and -2α mRNA levels (HIF-2α or HIF-1α mRNA): no effect; Effect on HIF-2α/ARNT PAS-B* heterodimerization in AlphaScreen [1]: blocks heterodimer assembly"
"O=[N+]([O-])c1c(NCc2ccc(F)cc2Cl)ccc2nonc12 [Compound 2, N-(2-chloro-4-fluorobenzyl)-4-nitrobenzo[c][1,2,5]oxadiazol-5-amine]",,330,500,
"O=[N+]([O-])c1c(NCc2cc(F)ccc2F)ccc2nonc12 [Compound 3, N-(2,5-difluorobenzyl)-4-nitrobenzo[c][1,2,5]oxadiazol-5-amine]",> 10000,> 10000,,
"O=[N+]([O-])c1c(NCc2ccc(F)cc2C(F)(F)F)ccc2nonc12 [Compound 4, N-(4-fluoro-2-(trifluoromethyl)benzyl)-4-nitrobenzo[c][1,2,5]oxadiazol-5-amine]",520,> 30000,,
"O=[N+]([O-])c1c(Nc2cccc(Cl)c2)ccc2nonc12 [Compound 5, N-(3-chlorophenyl)-4-nitrobenzo[c][1,2,5]oxadiazol-5-amine]",,180,160,
"O=[N+]([O-])c1c(Nc2cccc(C(F)(F)F)c2)ccc2nonc12 [Compound 6, 4-nitro-N-(3-(trifluoromethyl)phenyl)benzo[c][1,2,5]oxadiazol-5-amine]",,460,640,
O=[N+]([O-])c1c(Nc2ccc(Br)c(F)c2)ccc2nonc12 [Compound 7],220,150,,
"O=[N+]([O-])c1c(Nc2cccc(Cl)c2F)ccc2nonc12 [Compound 8, N-(3-chloro-2-fluorophenyl)-4-nitrobenzo[c][1,2,5]oxadiazol-5-amine]",,760,1100,
"O=[N+]([O-])c1c(Nc2ccc(Cl)c(C(F)(F)F)c2)ccc2nonc12 [Compound 9, N-(4-chloro-3-(trifluoromethyl)phenyl)-4-nitrobenzo[c][1,2,5]oxadiazol-5-amine]",260,90,,
"O=[N+]([O-])c1c(Nc2cc(F)cc(C(F)(F)F)c2)ccc2nonc12 [Compound 10, N-(3-fluoro-5-(trifluoromethyl)phenyl)-4-nitrobenzo[c][1,2,5]oxadiazol-5-amine]",,430,370,
"O=[N+]([O-])c1c(Nc2cc(F)cc(F)c2)ccc2nonc12 [Compound 11, N-(3,5-difluorophenyl)-4-nitrobenzo[c][1,2,5]oxadiazol-5-amine]",2100,> 1000,,
"O=[N+]([O-])c1c(Nc2ccc(Cl)c(Cl)c2)ccc2nonc12 [Compound 12, N-(3,4-dichlorophenyl)-4-nitrobenzo[c][1,2,5]oxadiazol-5-amine]",,120,170,
O=[N+]([O-])c1cc(Nc2ccc3nonc3c2[N+](=O)[O-])ccc1Cl [Compound 32],,200,1100,Effect on AlphaScreen signal of control reaction (GST-ARNT-PAS-B*-FLAG): No effect; Effect on HIF-2α/ARNT PAS-B* heterodimerization in AlphaScreen [1]: antagonizes HIF-2α/ARNT PAS-B* heterodimerization
Nc1c(Nc2cc(F)cc(Cl)c2)ccc2nonc12 [Compound 39],~6000,> 30000,,
"Fc1cc(Br)cc([C@@H]2C[C@H](c3cccc(Br)c3)n3nnnc3N2)c1 [Compound 47, (5S,7R)-5-(3-Bromo-5-fluorophenyl)-7-(3-bromophenyl)-4,5,6,7-tetrahydrotetrazolo[1,5-a]pyrimidine]",83,100,,VEGF protein secretion (VEGF [6]): reduce VEGF protein secretion in a dose-dependent manner
"Fc1cc(Br)cc([C@@H]2C[C@H](c3ccccc3)n3nnnc3N2)c1 [Compound 49, (5S,7R)-5-(3-bromo-5-fluorophenyl)-7-phenyl-4,5,6,7-tetrahydrotetrazolo[1,5-a]pyrimidine]",268,350,,
"Clc1ccccc1[C@H]1C[C@@H](c2cccc(Br)c2)Nc2nnnn21 [Compound 52, (5S,7R)-5-(3-bromophenyl)-7-(2-chlorophenyl)-4,5,6,7-tetrahydrotetrazolo[1,5-a]pyrimidine]",337,300,,
Clc1cccc([C@H]2C[C@@H](c3cccc(Br)c3)Nc3nnnn32)c1 [Compound 57],133,150,,
"Brc1cccc([C@@H]2C[C@H](c3cccc(Br)c3)n3nnnc3N2)c1 [Compound 58, (5S,7R)-5,7-bis(3-bromophenyl)-4,5,6,7-tetrahydrotetrazolo[1,5-a]pyrimidine]",89,100,,
"Clc1ccc(Br)cc1[C@H]1C[C@@H](c2cccc(Br)c2)Nc2nnnn21 [Compound 60, (5S,7R)-7-(5-bromo-2-chlorophenyl)-5-(3-bromophenyl)-4,5,6,7-tetrahydrotetrazolo[1,5-a]pyrimidine]",192,400,,
"Fc1ccc(Br)c(F)c1[C@H]1C[C@@H](c2cccc(Br)c2)Nc2nnnn21 [Compound 62, (5S,7R)-7-(3-bromo-2,6-difluorophenyl)-5-(3-bromophenyl)-4,5,6,7-tetrahydrotetrazolo[1,5-a]pyrimidine]",44,< 100,,
"Fc1c(Br)ccc(Br)c1[C@H]1C[C@@H](c2cccc(Br)c2)Nc2nnnn21 [Compound 63, (5S,7R)-5-(3-bromophenyl)-7-(3,6-dibromo-2-fluorophenyl)-4,5,6,7-tetrahydrotetrazolo[1,5-a]pyrimidine]",31,< 10,,
